The values that follow come from patent publication US20100292472A1, “PROPHYLACTIC AND THERAPEUTIC MEDICINE FOR MALARIA” (priority 2008, published 2010).

Where two headings read alike, the source gives them in different places.

Data set [1] concerns P. falciparum strain 3D7. Description: Test for growth inhibitory activity against P. falciparum (infected erythrocytes, Giemsa thin blood film). The data set is classed as cell-based, Plasmodium falciparum. Conditions: for EC50: read-out: ED50 (50% growth inhibition concentration, EC50). The protocol: To investigate growth inhibitory activity against a laboratory strain 3D7 of P. falciparum, the following various compounds were tested: inabenfide (Wako Pure Chemicals, Osaka, Japan), uniconazole P (Wako Pure Chemicals, Osaka, Japan), paclobutrazol (Wako Pure Chemicals, Osaka, Japan), AMO-1618 (CALBIOCHEM, La Jolla, Calif.) and FC-907 as gibberellin inhibitors; thidiazuron (Wako Pure Chemicals, Osaka, Japan), 6-benzyl aminopurine (Wako Pure Chemicals, Osaka, Japan), trans-zeatin (Wako Pure Chemicals, Osaka, Japan) and cis-zeatin (Sigma) as cytokinins; and α-aminooxy acetic acid (Wako Pure Chemicals, Osaka, Japan) as an ethylene inhibitor.
As a culture medium for the P. falciparum strain 3D7, filter-sterilized RPMI 1640 (pH 7.4) containing 10% (v/v) human serum and human erythrocytes at 3% hematocrit (the ratio of erythrocytes in a suspension thereof) was prepared. Each compound was dissolved at predetermined concentrations in an appropriate solvent (water, ethanol or DMSO) and added to wells. To each well, 3D7-infected erythrocytes were added at a starting parasitemia of 0.1% and the total volume was adjusted to 2.5 ml with the culture medium. The plates were incubated for 3 days. Control cultures were prepared so that instead of each compound solution, the equal volume of the corresponding solvent alone was contained, and similarly incubated. After the incubation, a thin blood film from each culture was prepared and stained with Giemsa (E. Merck, Germany). A total of 3000-erythrocytes/1 thin blood film were examined microscopically (immersed in oil, magnified to 1000 times), after which the malarial infection rate was determined using the equation below. The culture was maintained at 37° C. in a CO2—O2—N2 incubator (5% CO2, 5% O2, and 90% N2 atmosphere). The experiments were performed at least twice and each treatment was performed in triplicate. By comparison of the malarial infection rates obtained in control and compound-treated samples, the efficacy of each compound was assessed.
Malarial infection rate=[(number of infected erythrocytes)/(total number of examined erythrocytes)]×100
For compounds showing growth inhibitory activity, the 50% growth inhibition concentration (EC50) was calculated using the following equation.
X1: concentration of the compound showing <50% inhibition rate (μM) Y1: inhibition rate at the concentration X1 X2: concentration of the compound showing >50% inhibition rate (μM) Y2: inhibition rate at the concentration X2

The test system of data set [2] is T. gondii strain 2F tachyzoites. The data set is described as follows: Test for growth inhibitory activity against T. gondii (β-gal colorimetric proliferation assay in Vero cells). The data set is classed as cell-based, Toxoplasma gondii. The following applies: T. gondii 2F tachyzoites in Vero cells, 2 days. The protocol: To investigate growth inhibitory activity against T. gondii, the following various compounds were tested: inabenfide (Wako Pure Chemicals, Osaka, Japan), paclobutrazol (Wako Pure Chemicals, Osaka, Japan), uniconazole P (Wako Pure Chemicals, Osaka, Japan) and AMO-1618 (CALBIOCHEM, La Jolla, Calif.) as gibberellin inhibitors; thidiazuron (Wako Pure Chemicals, Osaka, Japan) and 6-benzyl aminopurine (Wako Pure Chemicals, Osaka, Japan) as cytokinins; and α-aminooxy acetic acid (Wako Pure Chemicals, Osaka, Japan) as an ethylene inhibitor.
For this test, T. gondii strain 2F tachyzoites were used. The strain 2F was established by transfection of the T. gondii strain RH with a β-galactosidase gene (β-gal, derived from Escherichia coli) [Reference: J. M. Dobrowolski and L. D. Sibley. Toxoplasma invasion of mammalian cells is powered by the actin cytoskeleton of the parasite. Cell 84, 933-939 (1996)]. The 2F strain was kindly provided by Dr. L. David Sibley (Washington University School of Medicine, St. Louis, Mo., US). As a host cell for the parasites, Vero cells were used. Vero cell cultures were incubated with RPMI 1640 medium containing 10% (v/v) FCS in 96-well plates for 2 days and then infected with 2.5×10^5 tachyzoites/well in RPMI 1640 medium containing 3% (v/v) FCS and various concentrations of the compounds. The tachyzoites were harvested after 2 days and the proliferation rate was monitored as a measure of β-gal activity in a colorimetric assay using chlorophenol red β-D-galactopyranoside. The proliferation rate of compound-untreated tachyzoites is set to 100% and the IC50 means the concentration of the compound that inhibits the proliferation rate by 50%.

For data set [3] the following is noted: Reported Data; cited from earlier work.
The conditions of data set [4]: Mice; Reported Data; cited from earlier work.
The mark [5] stands for this setting: Plasmodium falciparum, 3D7, Erythrocyte, 72 h.
The mark [6] stands for this setting: P. falciparum 3D7, 3 days incubation, Table 1.

In general, IC50 refers to the concentration at which inhibition is half-maximal. For `NOCC(=O)O` [α-Aminooxy acetic Acid, α-aminooxy acetic acid], the EC50 in data set [1] (setting [5]) is 20.3 µM. Also, 96.9 µM corresponded to half-maximal inhibition in data set [2] (Toxoplasma gondii, 48 h) (IC50).

As for `CC1=CCCC(C)(C)C1C=CC(C)[N+](C)(C)C` (stereo not drawn) [FC-907, N,N,N-trimethyl-1-methyl-(2′,6′,6′-trimethylcyclohex-2′-en-1′-yl) prop-2-enylammonium iodide], the EC50 in data set [1] (setting [6]) was found to be 4.26 µM.

For orientation: LD50 means the dose at which mortality reaches 50%. As to `O=C(Nc1ccc(Cl)cc1C(O)c1ccccc1)c1ccncc1` (stereo not drawn) [Inabenfide, inabenfide], in data set [1] (setting [5]), the EC50 is 4.47 µM. In data set [3], the Mutagenesis result is given as “No”. Half-maximal inhibition in data set [2] (Toxoplasma gondii, 48 h) (IC50) required 17 µM. For the same compound, in data set [4], the median lethal dose (LD50) is reported as >15000 mg/kg.

`c1ccc(CNc2ncnc3nc[nH]c23)cc1` [6-Benzylaminopurine, 6-benzyl aminopurine]: in data set [1] (setting [6]), the EC50 is 19 µM. In addition, the Mutagenesis result in data set [3] was “No”. In addition, in data set [2] (read-out: IC50 Toxoplasma), the IC50 is > 300 µM. For the same compound, the LD50 in data set [4] is recorded as 1300 mg/kg.

As to `CC(C)(C)[C@H](O)/C(=C\c1ccc(Cl)cc1)n1cncn1` [Uniconazole P, uniconazole P], the EC50 in data set [1] (setting [6]) worked out at 25 µM. For the same compound, in data set [3], the Mutagenesis entry was “No”. Besides, the IC50 in data set [2] (read-out: IC50 Toxoplasma) was 97.4 µM. Moreover, the LD50 in data set [4] was 1000 mg/kg.

Turning to `Cc1cc(OC(=O)N2CCCCC2)c(C(C)C)cc1[N+](C)(C)C.[Cl-]` [AMO-1618], in data set [1] (setting [6]), the EC50 came out at 10.3 µM. Also, in data set [1] (concentration 10 μM (X1), FIG. 1), the “growth inhibition rate (Y1)” value came out at 48.9. For the same compound, in data set [1] (concentration 20 μM (X2), FIG. 1), the “growth inhibition rate (Y2)” value was determined as 85.4. Further, in data set [2] (read-out: IC50 Toxoplasma), the IC50 was > 1000 µM. Further, the LD50 in data set [4] was 0.36 mg/kg.

For `C/C(=C\CNc1ncnc2nc[nH]c12)CO` [trans-Zeatin, trans-zeatin], the EC50 in data set [1] (setting [6]) was 651 µM. Besides, the LD50 in data set [4] was 1300 mg/kg.

For `CC(C)(C)[C@@H](O)[C@@H](Cc1ccc(Cl)cc1)n1cncn1` [Paclobutrazol, paclobutrazol], the EC50 in data set [1] (setting [5]) turned out to be 27.1 µM. 121 µM corresponded to half-maximal inhibition in data set [2] (Toxoplasma gondii, 48 h) (IC50). The LD50 in data set [4] is recorded as >5000 mg/kg.

In the case of `C/C(=C/CNc1ncnc2nc[nH]c12)CO` [cis-Zeatin, cis-zeatin], in data set [1] (setting [6]), the EC50 stood at 742 µM.

Take `O=C(Nc1ccccc1)Nc1cnns1` [Thidiazuron, thidiazuron]: the EC50 in data set [1] (setting [5]) is 17.5 µM. In data set [3], the Mutagenesis entry is “No”. Besides, the IC50 in data set [2] (Toxoplasma gondii, 48 h) was 74.5 µM. Besides, the LD50 in data set [4] is given as >5000 mg/kg.
